Here are results for two molecules from PubChem BioAssay (NCI).

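Protocol summary: plate cells (96-well), add compound at 5 concentrations, incubate 48 h, interpolate endpoints linearly. TGI denotes the concentration required for complete inhibition of growth.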

Test systems include DMS 114 small cell lung; LXFL 529 NSCLC; M19-MEL melanoma; DMS 273 small cell lung; DLD-1 colon; KM20L2 colon; RXF-631 renal; UO-31 renal; XF 498 CNS; SNB-78 CNS.
What all share (experiment): NCI-60 cell line screen, 48 h

`O=C(O)c1nccnc1C(=O)O`: the TGI in the experiment on DMS 114 small cell lung, in the experiment on LXFL 529 NSCLC, with M19-MEL melanoma, with DMS 273 small cell lung, in the experiment with DLD-1 colon and in the experiment with KM20L2 colon was > 100 µM throughout. Moreover, the TGI with RXF-631 renal, with UO-31 renal and in the experiment with XF 498 CNS was > 100 µM each time.

With `[O-][n+]1c(-c2ccccc2)c2nc3ccccc3nc2c2ccccc21`, the TGI was 92.4 µM in the experiment with SNB-78 CNS; > 100 µM with DMS 114 small cell lung; 93.9 µM in the experiment on LXFL 529 NSCLC; > 100 µM with M19-MEL melanoma; > 100 µM with DMS 273 small cell lung; > 100 µM with DLD-1 colon. The TGI in the experiment on KM20L2 colon, in the experiment with RXF-631 renal, with UO-31 renal and with XF 498 CNS was > 100 µM in each case.
